Experimental data from PubChem BioAssay (NCI).
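96-well plates; 48 h exposure; 5 concentrations. Endpoints by linear interpolation between flanking doses. Not reached: highest tested concentration assigned. GI50: concentration for 50% inhibition of growth. TGI denotes the concentration required for complete inhibition of growth.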 Where a SMILES comes first, the peptide text is derived from it. [ ]: non-standard residue; d: D form. The star is where a group is joined. dTle = CC(C)(C)[C@@H](N)C(=O)O; 4Abz = Nc1ccc(C(=O)O)cc1; NHOH = ON*

Key:
Experiment in all cases: NCI tumour cell line growth inhibition, 48 h
ACHN renal = test system: ACHN renal
UO-31 renal = test system: UO-31 renal
KM12 colon = test system: KM12 colon
SNB-75 CNS = test system: SNB-75 CNS
PC-3 prostate = test system: PC-3 prostate
NCI-H226 lung = test system: NCI-H226 lung
SK-MEL-2 melanoma = test system: SK-MEL-2 melanoma
HCC-2998 colon = test system: HCC-2998 colon

| SMILES | GI50 (ACHN renal) | TGI (ACHN renal) | GI50 (UO-31 renal) | TGI (UO-31 renal) | GI50 (KM12 colon) | TGI (KM12 colon) | GI50 (SNB-75 CNS) | TGI (SNB-75 CNS) | GI50 (PC-3 prostate) | TGI (PC-3 prostate) | GI50 (NCI-H226 lung) | TGI (NCI-H226 lung) | GI50 (SK-MEL-2 melanoma) | TGI (SK-MEL-2 melanoma) | GI50 (HCC-2998 colon) | TGI (HCC-2998 colon) |
| --- | --- | --- | --- | --- | --- | --- | --- | --- | --- | --- | --- | --- | --- | --- | --- | --- |
| COc1ccc2c(c1)C(=O)/C(=C/c1ccc([N+](=O)[O-])o1)O2 | 0.758 µM | 2.02 µM | 0.796 µM | 2.46 µM | 1.65 µM | 3.11 µM | 1.73 µM | 5.69 µM | 1.91 µM | 8.27 µM | 1.78 µM | 5.83 µM | 1.83 µM | 3.83 µM | 1.89 µM | 3.74 µM |
| C/C(=N\NC(=S)SCc1ccccc1)c1ccccn1 |  | 1.95 µM |  | 14.2 µM |  | 16.1 µM |  | 13.7 µM |  | 15.2 µM |  | 1.62 µM |  | 11.6 µM |  | 23.8 µM |
| CCC(=O)Nc1ccc(C)c(-c2ccc(C(=O)NCC3CC3)cc2)c1 | > 25 µM | > 25 µM | > 25 µM | > 25 µM | > 25 µM | > 25 µM | > 25 µM | > 25 µM | > 25 µM | > 25 µM | > 25 µM | > 25 µM | > 25 µM | > 25 µM | > 25 µM | > 25 µM |
| C/C(=C\c1cc(C(F)(F)F)n(-c2ccc(N)cc2)n1)[C@@H]1C[C@@H]2O[C@]2(C)CCC[C@H](C)[C@H](O)[C@@H](C)C(=O)C(C)(C)[C@@H](O)CC(=O)O1 | 0.0822 µM | > 11.1 µM | 0.0791 µM | > 11.1 µM | 0.00522 µM | > 11.1 µM | 0.0078 µM | 0.189 µM | 0.0297 µM | > 11.1 µM | 0.956 µM | > 11.1 µM | 0.0295 µM | 0.382 µM | 0.0244 µM | 1.39 µM |
| NS(=O)(=O)CC1CC[CH-]CC1.[Cl-].[Cl-].[Cl-].[Cl-].[Cl-].[Sb+5].c1ccncc1 | > 100 µM | > 100 µM | > 100 µM | > 100 µM | > 100 µM | > 100 µM | > 100 µM | > 100 µM | > 100 µM | > 100 µM | > 100 µM | > 100 µM | > 100 µM | > 100 µM | > 100 µM | > 100 µM |
| O=C(/C=C/C12c3ccccc3C(c3ccccc31)C1C(=O)NC(=O)C12)c1ccc(F)cc1 (centres undefined) | 2.43 µM | 6.18 µM | 1.42 µM | 2.85 µM | 1.78 µM | 3.43 µM | 1.39 µM | 2.92 µM | 1.66 µM | 3.38 µM | 2.74 µM | 9.51 µM | 2.06 µM | 4.23 µM | 1.62 µM | 3.1 µM |
| CCCCCCCCCNC(=O)/C=C/c1ccc(O)c(O)c1 | 6.96 µM | 21.6 µM | 1.42 µM | 14.9 µM | 9.02 µM | 23.6 µM | 15.4 µM | 85.2 µM | 3.61 µM | 36.2 µM | 10.4 µM | 25.5 µM | 17.3 µM | 37.2 µM | 16 µM | 31.4 µM |
| CCOC(=O)C1=C(C)N(Cc2ccc(Cl)cc2Cl)C2(O)C=CC(=O)C3=C(O)c4ccccc4C(=O)C312 (centres undefined) | 3.82 µM | 18.2 µM |  |  | 4.02 µM | 16.8 µM | 16.9 µM | > 100 µM | 2.16 µM | 10.5 µM | 3.77 µM | 27.8 µM | 38.4 µM | > 100 µM | 11.2 µM | 28.2 µM |
| C=C1C(=O)O[C@H]2[C@H]1CC/C(COC(=O)C(C)c1ccc(CC(C)C)cc1)=C\CC[C@@]1(C)O[C@@H]21 (some centres undefined) | 1.29 µM | 2.56 µM | 1.28 µM | 2.54 µM | 1.79 µM | 3.69 µM | 1.68 µM | 3.16 µM | 0.891 µM | 2.17 µM | 1.64 µM | 3.52 µM | 1.89 µM | 3.72 µM | 1.95 µM | 3.74 µM |
| CC1(C)NCCC[C@]2(C)[C@H]3CC[C@@H]4[C@H]5[C@H](C(=O)/C=C/c6ccccn6)CC[C@]5(CO)CC[C@@]4(C)[C@]3(C)CC[C@@H]12 | 3.58 µM | 13.6 µM | 5.7 µM | 23.3 µM | 2.07 µM | 4.27 µM |  |  | 2.55 µM | 11.8 µM | 4.24 µM | 20.7 µM | 2.49 µM | 6.91 µM |  |  |
| C[C@@H](NC(=O)[C@H](NC(=O)[C@@H]1CCCN1C(=O)CNC(=O)c1ccc(N)cc1)C(C)(C)C)C(=O)NO (H-[4Abz]GP[dTle][dA]-{NHOH}) | > 100 µM | > 100 µM | > 100 µM | > 100 µM | > 100 µM | > 100 µM | > 100 µM | > 100 µM | > 100 µM | > 100 µM | > 100 µM | > 100 µM | > 100 µM | > 100 µM | > 100 µM | > 100 µM |
| CC(=O)O[C@H](C[C@H](C(C)C)N(C)C(=O)[C@@H](NC(=O)[C@H]1CCCN1C)C(C)C)c1nc(C(=O)N[C@@H](Cc2ccccc2)C[C@H](C)C(=O)O)c(C)s1 |  |  | 0.011 µM | > 16.7 µM | < 0.00167 µM | > 16.7 µM | < 0.00167 µM | > 16.7 µM | < 0.00167 µM | > 16.7 µM |  |  | < 0.00167 µM | > 16.7 µM | 0.00252 µM | > 16.7 µM |
| Nc1ccc(-c2cccs2)cc1NC(=O)c1ccc(CCCC(=O)Nc2ccc(C3CC3N)cc2)cc1 (centres undefined) |  |  | 23.3 µM | > 100 µM | 3.43 µM | > 100 µM | 1.65 µM | 4.27 µM |  |  | 2.7 µM | 7.57 µM | 7.28 µM | > 100 µM |  |  |
| N#Cc1cc(S(=O)(=O)Nc2nnc(-c3ccccc3)c(-c3ccccc3)n2)c(SCc2ccccc2)cc1Cl | 21.5 µM | 42.6 µM | 26.8 µM | 71.3 µM | 19.2 µM | 42.5 µM |  |  | 20 µM | 43.2 µM | 27.6 µM | 70.7 µM | 41.8 µM | > 100 µM | > 100 µM | > 100 µM |
| NS(=O)(=O)c1ccc(N(/C=C/C(=O)C(F)(F)F)Cc2ccc(Cl)cc2)cc1 | 31.7 µM | 78.1 µM | 15.8 µM | 44.6 µM | 22.7 µM | 74.5 µM | 32.2 µM | 65.1 µM | 19.6 µM | 59 µM |  |  | 27.2 µM | 62 µM | 18.1 µM | 35.5 µM |
| CC(=O)c1c(CO[N+](=O)[O-])n([O-])c2ccccc2[n+]1=O |  | > 100 µM |  | > 100 µM |  |  |  | > 100 µM |  | > 100 µM |  | > 100 µM |  | > 100 µM |  |  |
| CC(C(N)C(=O)NC(C(=O)O)C1OC(n2ccc(=O)[nH]c2=O)C(O)C1O)C(O)c1ccc(O)cn1 (centres undefined) |  | > 100 µM |  | > 100 µM |  | > 100 µM |  | > 100 µM |  | > 100 µM |  |  |  | > 100 µM |  | > 100 µM |
| Cc1cn2c(/C=N/N=C(N)N)c(-c3ccccn3)nc2s1 | 21.8 µM | 51.7 µM | 7.98 µM | > 20.5 µM | 15.4 µM | 33.2 µM | 7.66 µM | 19.3 µM | 15.6 µM | 53.9 µM | 25.1 µM | > 58.2 µM | 14 µM | 48.1 µM |  |  |
| Oc1c(Cl)cc(Cl)cc1C(c1cc(Cl)cc(Cl)c1O)C(Cl)(Cl)Cl | 2.82 µM | 12 µM |  |  | 2.83 µM | 10.1 µM | 3.75 µM | 17.4 µM | 2.19 µM | 10.9 µM | 2.18 µM | 5.89 µM | 2.72 µM | 12 µM | 1.91 µM | 5.08 µM |
| CN(CC(=O)Nc1nc2ccccc2[nH]1)S(=O)(=O)c1ccc(Cl)cc1 | > 100 µM | > 100 µM | > 100 µM | > 100 µM | > 100 µM | > 100 µM | 22.1 µM | 78.8 µM |  |  | > 100 µM | > 100 µM | 2.92 µM | > 100 µM | > 100 µM | > 100 µM |
| O=NNc1ccc(Sc2ccc(NN=O)cn2)nc1 |  | > 100 µM |  | > 100 µM |  | > 100 µM |  | > 100 µM |  | > 100 µM |  | > 100 µM |  |  |  | > 100 µM |
| O=C(O)c1c(=O)cccc2ssc12 | 1.72 µM | 3.21 µM | 1.66 µM | 3.44 µM | 1.9 µM | 3.72 µM |  |  | 1.83 µM | 3.58 µM | 1.87 µM | 3.6 µM | 2.03 µM | 3.83 µM | 1.8 µM | 3.36 µM |
| COc1cc(C2=N/C(=C/c3cccs3)C(=O)O2)cc(OC)c1OC |  | > 100 µM |  |  |  | > 100 µM |  | > 100 µM |  | > 100 µM |  | > 100 µM |  | > 100 µM |  | > 100 µM |
| CCCN(CCC)c1ccc(/C=N/NC(=O)c2cccnc2)c(OC)c1 | 28.8 µM | > 100 µM | 17.4 µM | 71.6 µM | 21.3 µM | 68.3 µM | 23.7 µM | 80.4 µM | 25.2 µM | > 100 µM | 32 µM | > 100 µM |  |  | 26.6 µM | 98.4 µM |
